Where a SMILES comes first, the peptide text is derived from it. Where no end group is shown, it is not given here. [ ]: non-standard residue; d: D form.
How the values were obtained:
[1] = test system: primary human ovarian cancer cell lines; assay: Cell number (Wst-1) and apoptosis (Annexin V/PI FACS) of patient derived ovarian cancer cell lines; assay type: cell-based
Description: FIGS. 12A-12E show stimulation of Tsp-1 and its effects on ovarian cancer cell growth and survival. FIG. 12A is a western blot of Tsp-1 and β-actin in WI-38 lung fibroblasts that were untreated (−) or treated with native DWLP (SEQ ID NO: 6), L-amino acid, prosaposin peptide (WT), dWIP (SEQ ID NO: 5, lower case d and 1 indicate D-amino acids) prosaposin peptide (d1.3) or DwLp (SEQ ID NO: 7, lower case w and p indicate D-amino acids) prosaposin peptide (d2,4): […] is a western blot of Tsp-1 and β-actin in mouse lung tissue harvested from mice treated with metastatic prostate cancer cell conditioned media alone (−) or in combination with DWLP (SEQ ID NO: 6) prosaposin peptide (WT) or dWIP (SEQ ID NO: 5, lower case d and l indicate D-amino acids) prosaposin peptide (d1,3 peptide) at doses of 10 and 30 mg/kg/day for 3 days; FIG. 12C is a western blot of CD36 and β-actin in 8 patient derived ovarian cancer cell lines; FIG. 12D is a plot of cell number as measured by Wst-1 assay of a patient derived ovarian cancer cell line treated with 1 μM recombinant human Tsp-1 (rhTsp-1) for 24, 48 and 72 hours; and FIG. 12E is a FACS analysis of Annexin V and PI of a patient derived ovarian cancer cell line treated with 1 μM recombinant human Tsp-1 (rhTsp-1) for 48 hours.
In order to test the efficacy of the d-amino acid Psap peptide, a suitable tumor model that would represent a potential clinical application for the peptide, was determined. Given that Psap, and the peptide derived from it, stimulates Tsp-1 in bone marrow derived cells that are recruited to sites of metastasis, a specific type of cancer that expressed the receptor for Tsp-1 that mediates its pro-apoptotic activity, CD36 was sought to be identified (5). It has been reported that serous ovarian epithelial cells and human ovarian cancer cells express CD36 (11-13). […] Three of these cell lines were treated with recombinant human Tsp-1 for up to 72 hours and determined its effect on cell number and apoptosis.

DF14 cells = assay: PDX model of established ovarian cancer metastases, d-amino acid Psap peptide; assay type: in vivo; set-up: mice that died from adverse side effects / decrease of total body weight: dose or concentration left out as unconfirmed; details: for body weight: 40 mg/kg QD, FIG. 16
Description: 75 percent of ovarian cancer patients already have disseminated disease at the time of first diagnosis (E. Lengyel, Ovarian cancer development and metastasis. Am J Pathol 177, 1053-1064 (2010)). For these patients inhibiting metastasis would have limited therapeutic benefit. Rather, these patients require a therapeutic agent that can regress or, at the very least, stabilize existing metastases. Whether the d-amino acid Psap peptide could have therapeutic efficacy in a model of established metastatic dissemination was investigated. 1×10^6 DF14 cells, expressing firefly luciferase, were injected into the peritoneal cavity of SCID mice to mimic the route of dissemination of human ovarian cancer. The growth of metastatic colonies in the mice in real time were monitored via relative luciferase intensity and when the average intensity of the luciferase signal was 0.5-1×10^8 RLU, treatment with vehicle (saline), the d-amino acid peptide (40 mg/kg QD), or cisplatin (4 mg/kg QOD) was started. […] However, during those 20 days half of the cisplatin treated mice died from adverse side effects of the drug as defined by total body weight, which decreased by 40% (FIG. 13C). Moreover, after 20 days the tumors in the group of cisplatin treated mice that survived began to grow, despite continued treatment with cisplatin, and all the remaining mice died within 10 days (FIG. 13A).
The livers and spleens of the Psap peptide treated mice were examined histologically (H&E) to determine whether there were any micrometastases.
Metastases in the peritoneal cavity recruited Cd11b^+/Gr1^+ bone marrow derived cells, analogous to lung metastases was investigated (3). […] The fluid was FACS sorted from these mice to assess the population of Cd11^+/Gr1^+ bone marrow derived cells. […] Based on these findings it was concluded that the Psap peptide was able to dramatically regress established metastases to the point where no detectable lesions could be found.

thrombospondin-1 (Tsp-1) = assay: Tsp-1 activation in cultured cells by Western blot; assay type: cell-based
Method: Cells were cultured and contacted with 4 micrograms/mL or 10 micrograms/mL of each peptide and the level of thrombospondin-1 (Tsp-1) activation was measured by Western blot. Tsp-1 has been previously shown to be activated by Saposin A protein.

[2] = Stability in human plasma at 37° C., read out as Tsp-1 stimulation in WI-38 fibroblasts (ELISA); assay type: in vitro ADME; details: 24 hours
Method: The cyclic peptide DWLPK (SEQ ID NO: 1) was also tested for stability in human plasma compared to the linear peptide dWIP (SEQ ID NO: 5). Each peptide was incubated in human plasma at 37 degrees Celsius, for 2, 4, 8, or 24 hours.
Cyclization also has the effect of increasing the stability of peptides by forcing them into a conformation that is not recognized by most naturally occurring proteases (9, 10, 14-18). The stability of the cyclic peptide to the linear d-amino acid peptide in human plasma was compared.

Tsp-1 = Tsp-1 expression in lungs of mice pretreated with PC3M-LN4 conditioned media (western blot); assay type: in vivo, C57BL6/J mice; details: dose of 10 mg/kg, 3 days, LN4 CM
Method: The activity of the 1,3-d-amino acid Psap peptide and the native Psap peptide were tested in vivo. The peptides were systematically administered to C57BL6/J mice that were pretreated with conditioned media (CM) from PC3M-LN4 (LN4) cells, which previously mimicked the systemic properties of metastatic tumors by repressing the expression of Tsp-1 in the lungs of mice (3, 4). After 3 days of treatment with LN4 CM alone or in combination with two different doses (10 mg/kg/day and 30 mg/kg/day) of d- and 1-amino acid peptides (independently) protein pools were prepared from the harvested lungs of each treatment group. The level of Tsp-1 expression in the lungs of these mice were assessed by western blot analysis. It was observed that the 1,3-d-amino acid peptide stimulated Tsp-1 3-fold greater than the native peptide (FIG. 12B). […] Based on the observation that the in vitro activity of the two peptides was virtually identical, it was concluded that the difference in activity in vivo was due to a difference in stability.

N.N.[Cl][Pt][Cl] [cisplatin]
necrosis (low Anexin V and high PI staining) ([1]; FIG. 12E, compared with Tsp-1 treatment): much greater percentage of ovarian cancer cells underwent necrosis
time until all remaining mice died (DF14 cells; after day 20 of treatment): ≤ 10 days
decrease of total body weight (DF14 cells; during first 20 days): 40%
mice that died from adverse side effects (DF14 cells; during first 20 days): half
tumor volume as determined by luciferase intensity (DF14 cells; first 20 days of treatment, peptide 40 mg/kg QD, cisplatin 4 mg/kg QOD): able to regress tumor volume
tumor growth after 20 days despite continued treatment (DF14 cells; surviving mice, cisplatin 4 mg/kg QOD): began to grow

CC(C)C[C@@H]1NC(=O)[C@H](Cc2c[nH]c3ccccc23)NC(=O)[C@@H](CC(=O)O)NC(=O)[C@H](CCCCN)NC(=O)[C@@H]2CCCN2C1=O [cyclic dWLPK] (cyclo(K[dD]WLP))
effectiveness at increasing the level of Tsp-1 (thrombospondin-1 (Tsp-1); cyclic peptides, 4 micrograms/mL or 10 micrograms/mL, Western blot, FIG. 2): least effective

CC(C)C[C@@H](NC(=O)[C@H](Cc1c[nH]c2ccccc12)NC(=O)[C@H](N)CC(=O)O)C(=O)N1CCC[C@H]1C(=O)O [linear dWIP, reference compound] (H-[dD]W[dL]P-OH; N-terminus and C-terminus assumed)
ability to activate Tsp-1 after incubation in human plasma ([2]; 37 degrees Celsius, FIG. 3): significantly less activity
Tsp-1 stimulation after incubation in human plasma ([2]; 37° C., ELISA): no longer able to stimulate Tsp-1
body weight (DF14 cells; listed as Psap peptide): no loss of body weight
body weight (DF14 cells; listed as psap peptide): no effect on body weight

RhTsp-1: recombinant human Tsp-1 (thrombospondin-1)
apoptotic cells (Anexin V positivity) by FACS ([1]; 1 μM, 48 hours, FIG. 12E): 30-60%
decrease in total cell number, of the original number of cells plated ([1]; three cell lines, up to 72 hours, 1 μM, FIG. 12D): up to 50%

linear DWGPK: linear version of peptide DWGPK (SEQ ID NO: 2) (not fully specified) [reference compound]
effectiveness at increasing Tsp-1, linear versions of the peptides (thrombospondin-1 (Tsp-1); similar study with linear versions): more effective than linear DWLPK

native peptide: native DWLP (SEQ ID NO: 6), L-amino acid, prosaposin peptide (WT)
Tsp-1 stimulation in lungs (Tsp-1): did not significantly stimulate Tsp-1

Reference: patent US11654178B2, “Cyclic prosaposin peptides and uses thereof” (CHILDREN'S MEDICAL CENTER CORPORATION, priority 2014, dated 2023)
